How the values were obtained:
Neuraminidase [1] = target: T1, Neuraminidase (Influenza A virus, UniProt B4URF0); assay: Inhibition of Influenza A virus A/WSN/1933(H1N1) neuraminidase
[2] = Antiviral activity against Influenza A virus (A/WSN/1933(H1N1)) infected in MDCK cells assessed as inhibition of virus-induced cytopathicity; assay type: functional, organism-based
Neuraminidase [3] = target: T1, Neuraminidase; assay: Inhibition of Influenza A virus A/Vienna/83/58(H2N2) neuraminidase
Influenza A virus = assay: Antiviral activity against Influenza A virus (A/Singapore/1/1957 (H2N2)) infected in MDCK cells assessed as inhibition of virus-induced plaque formation; assay type: functional, organism-based
Neuraminidase [4] = target: T1, Neuraminidase

T1 sequence (B4URF0 whole entry): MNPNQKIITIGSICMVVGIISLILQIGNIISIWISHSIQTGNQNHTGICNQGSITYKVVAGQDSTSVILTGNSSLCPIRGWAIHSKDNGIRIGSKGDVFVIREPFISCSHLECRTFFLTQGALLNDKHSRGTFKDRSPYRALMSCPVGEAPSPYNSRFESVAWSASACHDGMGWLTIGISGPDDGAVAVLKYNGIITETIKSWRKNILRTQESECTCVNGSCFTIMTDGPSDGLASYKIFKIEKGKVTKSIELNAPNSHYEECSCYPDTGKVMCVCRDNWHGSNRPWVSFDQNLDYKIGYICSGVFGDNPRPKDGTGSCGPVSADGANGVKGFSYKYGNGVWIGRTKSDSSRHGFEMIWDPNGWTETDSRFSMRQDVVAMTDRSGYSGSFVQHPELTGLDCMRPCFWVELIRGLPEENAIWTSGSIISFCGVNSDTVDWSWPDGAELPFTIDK

CC(=O)N[C@H]1[C@H]([C@H](O)[C@H](O)CO)OC(C(=O)O)=C[C@@H]1N(CCCC(=O)N1CCNCC1)C(=N)N
IC50 (Neuraminidase [1]): 2.15 µM
EC50 [2]: 0.77 µM

CC(=O)N[C@H]1[C@H]([C@H](O)[C@H](O)CO)OC(C(=O)O)=C[C@@H]1N(CCCC(=O)N1CCN(C)CC1)C(=N)N
IC50 (Neuraminidase [1]): 6.5 µM
EC50 [2]: 10.7 µM

CC(=O)N[C@H]1[C@H]([C@H](O)[C@H](O)CO)OC(C(=O)O)=C[C@@H]1N(CCCN)C(=N)N
IC50 (Neuraminidase [1]): > 200 µM

CC(=O)N[C@H]1[C@H]([C@H](O)[C@H](O)CO)OC(C(=O)O)=C[C@@H]1N(CCCC(=O)O)C(=N)N
IC50 (Neuraminidase [1]): 7.12 µM
EC50 [2]: 52 µM

CC(=O)N[C@H]1[C@H]([C@H](O)[C@H](O)CO)OC(C(=O)O)=C[C@@H]1NCCCCN
IC50 (Neuraminidase [1]): > 200 µM

CC(=O)N[C@H]1[C@H]([C@H](O)[C@H](O)CO)OC(C(=O)O)=C[C@@H]1N=C(N)NCCCN
IC50 (Neuraminidase [1]): > 200 µM

CC(=O)N[C@H]1[C@H]([C@H](O)[C@H](O)CO)OC(C(=O)O)=C[C@@H]1NC(=N)N [ZANAMIVIR]
EC50 [2]: 0.013 µM

CC(=O)N[C@H]1[C@H]([C@H](O)[C@H](O)CO)OC(C(=O)O)=C[C@@H]1NCCCN
IC50 (Neuraminidase [1]): > 200 µM

CC(=O)N[C@H]1[C@H]([C@H](O)[C@H](O)CO)OC(C(=O)O)=C[C@@H]1NCCCCC(=O)O
IC50 (Neuraminidase [1]): 80 µM

CC(=O)N[C@H]1[C@H]([C@H](O)[C@H](O)CO)OC(C(=O)O)=C[C@@H]1N(CCCC(=O)N1CCOCC1)C(=N)N
IC50 (Neuraminidase [1]): 33.3 µM
EC50 [2]: 37.6 µM

CC(=O)N[C@H]1[C@H]([C@H](O)[C@H](O)CO)OC(C(=O)O)=C[C@@H]1O [NEU5AC2EN]
IC50 (Neuraminidase [3]): 190 µM

CC(=O)N[C@H]1[C@H]([C@H](O)[C@H](O)CO)OC(C(=O)O)=C[C@@H]1NCCCC(=O)O
IC50 (Neuraminidase [1]): 70 µM

CC(=O)N[C@H]1[C@H]([C@H](O)[C@H](O)CO)OC(C(=O)O)=C[C@@H]1NC(=N)NCCCCN
IC50 (Neuraminidase [1]): > 200 µM

CC(=O)N[C@H]1[C@H]([C@H](O)[C@H](O)CO)OC(C(=O)O)=C[C@@H]1N(CCCCN)C(=N)N
IC50 (Neuraminidase [1]): > 200 µM

CC(=O)N[C@H]1[C@H]([C@H](O)[C@H](O)CO)OC(C(=O)O)=C[C@@H]1N
EC50 (Influenza A virus): 1.5 µM
Ki (Neuraminidase [4]): 0.04 µM

CC(=O)N[C@H]1[C@H]([C@H](O)[C@H](O)CO)OC(C(=O)O)=C[C@@H]1NC1=NCCN1
IC50 (Neuraminidase [1]): > 200 µM

CC(=O)N[C@H]1[C@H]([C@H](O)[C@H](O)CO)OC(C(=O)O)=C[C@@H]1N(CCCC(=O)N1CCCCC1)C(=N)N
IC50 (Neuraminidase [1]): 23.1 µM
EC50 [2]: 45 µM

From ChEMBL document CHEMBL1165924 (Bioorg Med Chem, 2010)
